# Experimental data from publication PMC5908784, “Extracellular loops 2 and 3 of the calcitonin receptor selectively modify agonist binding and efficacy” (Biochemical Pharmacology, 2018).
# Numbering of substitutions follows the chain as printed. Like-named read-outs stand apart in the source and are kept apart here. Where a SMILES comes first, the peptide text is derived from it. Bridges are numbered along the chain shown (N, C = ends).
# Columns and labels:
# Test in all cases: ERK1/2 phosphorylation
# Assay type in all cases: cell-based
# [1] = molecular target: T1, hCTR E294A (Homo sapiens, UniProt P30988, E294A); settings: for Emax: read-out: Emax (% WT); for EC50: pERK, three-parameter logistic fit
# T1 construct: c-Myc (N); expressed in transfected cells
# T1 sequence (P30988 25-474 E294A): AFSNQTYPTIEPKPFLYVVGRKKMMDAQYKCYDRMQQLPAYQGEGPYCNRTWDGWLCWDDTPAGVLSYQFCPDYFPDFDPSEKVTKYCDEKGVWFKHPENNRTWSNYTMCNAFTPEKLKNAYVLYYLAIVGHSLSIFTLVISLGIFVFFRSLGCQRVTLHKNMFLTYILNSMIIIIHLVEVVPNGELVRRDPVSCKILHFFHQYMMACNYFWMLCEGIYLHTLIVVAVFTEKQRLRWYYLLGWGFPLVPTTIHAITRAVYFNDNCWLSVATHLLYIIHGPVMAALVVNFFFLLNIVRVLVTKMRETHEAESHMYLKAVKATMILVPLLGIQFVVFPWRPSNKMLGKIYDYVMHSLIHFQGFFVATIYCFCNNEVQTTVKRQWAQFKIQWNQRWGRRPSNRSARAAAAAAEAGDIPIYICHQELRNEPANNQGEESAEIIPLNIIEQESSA
# Method in brief: (§1)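 EC50 and Emax values derive from three-parameter logistic curves and combine functional affinity, efficacy and stimulus-response coupling. Responses are normalized to 10% FBS (6 min).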
# [2] = molecular target: T2, hCTR L298A (Homo sapiens, UniProt P30988, L298A); settings: CV1-FlpIn cells, mean ± S.E.M.; for Emax: pERK maximal response; for EC50: pERK, three-parameter logistic fit
# T2 construct: c-Myc (N); expressed in transfected cells
# T2 sequence (P30988 25-474 L298A): T1 sequence (P30988 25-474 E294A) with A270E, L274A
# Method in brief: as §1
# [3] = molecular target: T3, hCTR N286A (Homo sapiens, UniProt P30988, N286A); settings: CV1-FlpIn cells, mean ± S.E.M.; for Emax: pERK maximal response; for EC50: pERK, three-parameter logistic fit
# T3 construct: c-Myc (N); expressed in transfected cells
# T3 sequence (P30988 25-474 N286A): T1 sequence (P30988 25-474 E294A) with N262A, A270E
# Method in brief: as §1
# [4] = molecular target: T4, hCTR WT (Homo sapiens, UniProt P30988); settings: CV1-FlpIn cells, mean ± S.E.M.; for Emax: pERK maximal response; for EC50: pERK, three-parameter logistic fit
# T4 construct: expressed in transfected cells
# T4 sequence (P30988 25-474): T1 sequence (P30988 25-474 E294A) with A270E
# Method in brief: as §1
# [5] = molecular target: T5, hCTR Y372A (Homo sapiens, UniProt P30988, Y372A); settings: CV1-FlpIn cells, mean ± S.E.M.; for Emax: pERK maximal response
# T5 construct: c-Myc (N); expressed in transfected cells
# T5 sequence (P30988 25-474 Y372A): T1 sequence (P30988 25-474 E294A) with A270E, Y348A
# Method in brief: as §1
# [6] = pERK maximal response, hCTR E294A, CV1-FlpIn cells, mean ± S.E.M.
# [7] = hCTR E294A, CV1-FlpIn cells, mean ± S.E.M.
smiles,measurement,setting,value
CC(C)C[C@H](NC(=O)CNC(=O)[C@H](C)NC(=O)[C@H](CC(C)C)NC(=O)[C@H](CCCNC(=N)N)NC(=O)[C@H](Cc1cnc[nH]1)NC(=O)[C@@H](NC(=O)[C@@H](NC(=O)[C@@H]1CSSC[C@H](NC(=O)[C@H](C)N)C(=O)N[C@@H](CC(=O)O)C(=O)N[C@@H]([C@@H](C)O)C(=O)N[C@@H](C)C(=O)N[C@@H]([C@@H](C)O)C(=O)N1)C(C)C)[C@@H](C)O)C(=O)N[C@@H](CC(C)C)C(=O)N[C@@H](CO)C(=O)N[C@@H](CCCNC(=N)N)C(=O)N[C@@H](CO)C(=O)NCC(=O)NCC(=O)N[C@H](C(=O)N[C@H](C(=O)N[C@@H](CCCCN)C(=O)N[C@@H](CC(N)=O)C(=O)N[C@@H](CC(N)=O)C(=O)N[C@@H](Cc1ccccc1)C(=O)N[C@H](C(=O)N1CCC[C@H]1C(=O)N[C@H](C(=O)N[C@@H](CC(N)=O)C(=O)N[C@H](C(=O)NCC(=O)N[C@@H](CO)C(=O)N[C@@H](CCCCN)C(=O)N[C@@H](C)C(=O)N[C@@H](Cc1ccccc1)C(N)=O)C(C)C)[C@@H](C)O)C(C)C)C(C)C)C(C)C [hαCGRP],Emax,[1]; [6],66 ± 15%
same,EC50,[1]; [7],123 nM
same,Emax,[2],58 ± 8%
same,EC50,[2],75.9 nM
same,Emax,[3],31 ± 5%
same,EC50,[3],12.9 nM
same,Emax,[4],100 ± 6%
same,EC50,[4],77.6 nM
CC[C@H](C)[C@H](NC(=O)[C@H](C)NC(=O)[C@@H](NC(=O)[C@H](CCC(N)=O)NC(=O)[C@@H]1CCCN1C(=O)[C@H](Cc1ccccc1)NC(=O)[C@@H](NC(=O)[C@H](Cc1c[nH]cn1)NC(=O)[C@H](Cc1ccccc1)NC(=O)[C@H](CCCCN)NC(=O)[C@H](CC(N)=O)NC(=O)[C@H](Cc1ccccc1)NC(=O)[C@H](CC(=O)O)NC(=O)[C@H](CCC(N)=O)NC(=O)[C@@H](NC(=O)[C@H](Cc1ccc(O)cc1)NC(=O)[C@@H](NC(=O)CNC(=O)[C@H](CC(C)C)NC(=O)[C@H](CCSC)NC(=O)[C@@H]1CSSC[C@H](N)C(=O)NCC(=O)N[C@@H](CC(N)=O)C(=O)N[C@@H](CC(C)C)C(=O)N[C@@H](CO)C(=O)N[C@@H]([C@@H](C)O)C(=O)N1)[C@@H](C)O)[C@@H](C)O)[C@@H](C)O)[C@@H](C)O)C(=O)NCC(=O)N[C@H](C(=O)NCC(=O)N[C@@H](C)C(=O)N1CCC[C@H]1C(N)=O)C(C)C [hCT],Emax,[1],125 ± 10%
same,Emax,[2],84 ± 10%
same,Emax,[3],52 ± 5%
same,Emax,[4],100 ± 3%
same,Emax,[5],46 ± 4%
CC(C)C[C@H](NC(=O)[C@H](CC(N)=O)NC(=O)[C@H](CC(N)=O)NC(=O)[C@H](CO)NC(=O)[C@H](CO)NC(=O)[C@H](CCCNC(=N)N)NC(=O)[C@@H](NC(=O)[C@H](CC(C)C)NC(=O)[C@H](Cc1ccccc1)NC(=O)[C@H](CC(N)=O)NC(=O)[C@H](C)NC(=O)[C@H](CC(C)C)NC(=O)[C@H](CCCNC(=N)N)NC(=O)[C@H](CCC(N)=O)NC(=O)[C@@H](NC(=O)[C@H](C)NC(=O)[C@@H]1CSSC[C@H](NC(=O)[C@@H](N)CCCCN)C(=O)N[C@@H](CC(N)=O)C(=O)N[C@@H]([C@@H](C)O)C(=O)N[C@@H](C)C(=O)N[C@@H]([C@@H](C)O)C(=O)N1)[C@@H](C)O)C(C)C)C(=O)NCC(=O)N1CCC[C@H]1C(=O)N[C@H](C(=O)N[C@@H](CC(C)C)C(=O)N1CCC[C@H]1C(=O)N1CCC[C@H]1C(=O)N[C@H](C(=O)N[C@@H](CC(N)=O)C(=O)N[C@H](C(=O)NCC(=O)N[C@@H](CO)C(=O)N[C@@H](CC(N)=O)C(=O)N[C@H](C(=O)N[C@@H](Cc1ccc(O)cc1)C(N)=O)[C@@H](C)O)C(C)C)[C@@H](C)O)C(C)C [rAmy],Emax,[1],72 ± 7%
same,Emax,[2],82 ± 7%
same,Emax,[3],41 ± 6%
same,Emax,[4],100 ± 5%
CSCC[C@H](NC(=O)CNC(=O)[C@H](CO)NC(=O)[C@H](Cc1ccccc1)NC(=O)[C@H](CCCNC(=N)N)NC(=O)[C@H](Cc1c[nH]cn1)NC(=O)[C@H](Cc1ccccc1)NC(=O)[C@H](CC(N)=O)NC(=O)[C@H](CC(N)=O)NC(=O)[C@H](CC(C)C)NC(=O)[C@H](CC(N)=O)NC(=O)[C@H](CCCNC(=N)N)NC(=O)[C@H](Cc1c[nH]c2ccccc12)NC(=O)[C@H](Cc1ccc(O)cc1)NC(=O)[C@H](C)NC(=O)[C@H](CO)NC(=O)[C@H](CC(C)C)NC(=O)[C@@H](NC(=O)[C@@H]1CSSC[C@H](N)C(=O)N[C@@H](CO)C(=O)N[C@@H](CC(N)=O)C(=O)N[C@@H](CC(C)C)C(=O)N[C@@H](CO)C(=O)N[C@@H]([C@@H](C)O)C(=O)N1)C(C)C)C(=O)NCC(=O)N[C@@H](Cc1ccccc1)C(=O)NCC(=O)N1CCC[C@H]1C(=O)N[C@@H](CCC(=O)O)C(=O)N[C@H](C(=O)N1CCC[C@H]1C(N)=O)[C@@H](C)O [pCT] (H-CSNLSTCVLSAYWRNLNNFHRFSGMGFGPETP-NH2; disulfide 1-7),Emax,[1]; [6],115 ± 9%
same,EC50,[1]; [7],2 nM
same,Emax,[2],73 ± 6%
same,EC50,[2],1.1 nM
same,Emax,[3],46 ± 5%
same,EC50,[3],1.2 nM
same,Emax,[4],100 ± 3%
same,EC50,[4],1.12 nM
same,Emax,[5],26 ± 4%
same,EC50,"[5]; pERK, three-parameter logistic fit",19.1 nM
CC(C)C[C@H](NC(=O)[C@H](CCCCN)NC(=O)CNC(=O)[C@H](CC(C)C)NC(=O)[C@@H](NC(=O)[C@@H]1CSSC[C@H](N)C(=O)N[C@@H](CO)C(=O)N[C@@H](CC(N)=O)C(=O)N[C@@H](CC(C)C)C(=O)N[C@@H](CO)C(=O)N[C@@H]([C@@H](C)O)C(=O)N1)C(C)C)C(=O)N[C@@H](CO)C(=O)N[C@@H](CCC(N)=O)C(=O)N[C@@H](CCC(=O)O)C(=O)N[C@@H](CC(C)C)C(=O)N[C@@H](Cc1c[nH]cn1)C(=O)N[C@@H](CCCCN)C(=O)N[C@@H](CC(C)C)C(=O)N[C@@H](CCC(N)=O)C(=O)N[C@H](C(=O)N[C@@H](Cc1ccc(O)cc1)C(=O)N1CCC[C@H]1C(=O)N[C@@H](CCCNC(=N)N)C(=O)N[C@H](C(=O)N[C@@H](CC(N)=O)C(=O)N[C@H](C(=O)NCC(=O)N[C@@H](CO)C(=O)NCC(=O)N[C@H](C(=O)N1CCC[C@H]1C(N)=O)[C@@H](C)O)[C@@H](C)O)[C@@H](C)O)[C@@H](C)O [sCT],Emax,[1],126 ± 7%
same,Emax,[2],85 ± 6%
same,Emax,[3],59 ± 5%
same,Emax,[4],100 ± 3%
same,Emax,[5],39 ± 3%
